Data reported in ChEMBL document CHEMBL1147185, “Comparative rates of sialylation by recombinant trans-sialidase and inhibitor properties of synthetic oligosaccharides from Trypanosoma cruzi mucins-containing galactofuranose and galactopyranose” (Bioorg Med Chem, 2007).

Experiment: Inhibition of Trypanosoma cruzi trans-sialidase after 15 mins

Row | IC50 [µM] | SMILES
1 | 850 | O=C(COCc1ccccc1)N[C@H]1[C@@H](OCc2ccccc2)O[C@H](CO)[C@@H](O[C@@H]2O[C@@H]([C@H](O)CO)[C@H](O)[C@H]2O[C@@H]2O[C@H](CO)[C@H](O)[C@H](O)[C@H]2O)[C@@H]1O
2 | 700 | O=C(COCc1ccccc1)N[C@H]1[C@H](OCc2ccccc2)O[C@@H](CO[C@@H]2O[C@H](CO)[C@H](O)[C@H](O[C@H]3O[C@@H](CO)[C@@H](O)[C@@H](O)[C@@H]3O)[C@H]2O[C@@H]2O[C@H](CO)[C@H](O)[C@H](O)[C@H]2O)[C@H](O[C@@H]2O[C@@H]([C@H](O)CO)[C@H](O)[C@H]2O)[C@H]1O
3 | 940 | O=C(CO)N[C@H]1[C@@H](OCc2ccccc2)O[C@H](CO[C@@H]2O[C@H](CO)[C@H](O)[C@H](O)[C@H]2O)[C@@H](O[C@H]2O[C@H]([C@@H](O)CO)[C@@H](O)[C@@H]2O)[C@@H]1O
4 | 1130 | OC[C@@H]1O[C@H](O[C@@H]2[C@H](O)[C@H](CO)O[C@H](OCc3ccccc3)[C@H]2O[C@@H]2O[C@H](CO)[C@H](O)[C@H](O)[C@H]2O)[C@@H](O)[C@H](O)[C@@H]1O
5 | 860 | O=C(COCc1ccccc1)N[C@H]1[C@@H](OCc2ccccc2)O[C@H](CO[C@@H]2O[C@H](CO)[C@H](O)[C@H](O)[C@H]2O)[C@@H](O[C@H]2O[C@H]([C@@H](O)CO)[C@@H](O)[C@@H]2O)[C@@H]1O
6 | 1140 | O=C(COCc1ccccc1)N[C@H]1[C@H](OCc2ccccc2)O[C@@H](CO[C@H]2O[C@@H](CO)[C@@H](O)[C@@H](O[C@H]3O[C@@H](CO)[C@@H](O)[C@H](O)[C@@H]3O)[C@@H]2O)[C@H](O[C@@H]2O[C@@H]([C@H](O)CO)[C@H](O)[C@H]2O)[C@H]1O
7 | 610 | O=C(CO)N[C@H]1[C@H](OCc2ccccc2)O[C@@H](CO[C@@H]2O[C@H](CO)[C@H](O)[C@H](O[C@H]3O[C@@H](CO)[C@@H](O)[C@@H](O)[C@@H]3O)[C@H]2O[C@@H]2O[C@H](CO)[C@H](O)[C@H](O)[C@H]2O)[C@H](O[C@@H]2O[C@@H]([C@H](O)CO)[C@H](O)[C@H]2O)[C@H]1O
8 | 850 | CC(=O)N[C@H]1[C@H](OCc2ccccc2)O[C@@H](CO[C@@H]2O[C@H](CO)[C@H](O)[C@H](O[C@H]3O[C@@H](CO)[C@@H](O)[C@@H](O)[C@@H]3O)[C@H]2O[C@@H]2O[C@H](CO)[C@H](O)[C@H](O)[C@H]2O)[C@H](O[C@@H]2O[C@@H]([C@H](O)CO)[C@H](O)[C@H]2O)[C@H]1O
9 | 1670 | O=C(CO)N[C@H]1[C@@H](OCc2ccccc2)O[C@H](CO)[C@@H](O[C@@H]2O[C@@H]([C@H](O)CO)[C@H](O)[C@H]2O[C@@H]2O[C@H](CO)[C@H](O)[C@H](O)[C@H]2O)[C@@H]1O

The next lines start with the compound.

Row | SMILES | IC50 [µM]
10 | O=C(CO)N[C@H]1[C@@H](OCc2ccccc2)O[C@H](CO[C@@H]2O[C@H](CO)[C@H](O)[C@H](O)[C@H]2O)[C@@H](O)[C@@H]1O | 980
11 | O=C(COCc1ccccc1)N[C@H]1[C@@H](OCc2ccccc2)O[C@H](CO[C@@H]2O[C@H](CO)[C@H](O)[C@H](O)[C@H]2O)[C@@H](O)[C@@H]1O | 1110
12 | CC(=O)N[C@H]1[C@@H](OCc2ccccc2)O[C@H](CO[C@@H]2O[C@H](CO)[C@H](O)[C@H](O)[C@H]2O)[C@@H](O)[C@@H]1O | 2220
13 | CC(=O)N[C@H]1[C@@H](OCc2ccccc2)O[C@H](CO[C@@H]2O[C@H](CO)[C@H](O)[C@H](O)[C@H]2O)[C@@H](O[C@H]2O[C@H]([C@@H](O)CO)[C@@H](O)[C@@H]2O)[C@@H]1O | 1330
14 | CC(=O)N[C@H]1[C@@H](OCc2ccccc2)O[C@H](CO)[C@@H](O[C@@H]2O[C@@H]([C@H](O)CO)[C@H](O)[C@H]2O[C@@H]2O[C@H](CO)[C@H](O)[C@H](O)[C@H]2O)[C@@H]1O | 4430
15 | O=C(CO)N[C@H]1[C@H](OCc2ccccc2)O[C@@H](CO[C@H]2O[C@@H](CO)[C@@H](O)[C@@H](O[C@H]3O[C@@H](CO)[C@@H](O)[C@H](O)[C@@H]3O)[C@@H]2O)[C@H](O[C@@H]2O[C@@H]([C@H](O)CO)[C@H](O)[C@H]2O)[C@H]1O | 1260
16 | CC(=O)N[C@H]1[C@H](OCc2ccccc2)O[C@@H](CO[C@H]2O[C@@H](CO)[C@@H](O)[C@@H](O[C@H]3O[C@@H](CO)[C@@H](O)[C@H](O)[C@@H]3O)[C@@H]2O)[C@H](O[C@@H]2O[C@@H]([C@H](O)CO)[C@H](O)[C@H]2O)[C@H]1O | 760
